Tests used:
[1] = biological target: T1, human adenosine A2A receptor (Homo sapiens, UniProt P29274); assay: Human adenosine A2A receptor [3H]-SCH-58261 binding assay; conditions: for Selectivity: hA2A versus hA1; for Ki: recombinant receptor expressed in CHO cells, [3H]-SCH-58261 1 nM, SPA, read-out: hA2A (converted)
T1 construct: expressed in transfected cells; host or cells: CHO cells, semliki forest virus expression system; membranes used
Protocol: (§1) The human adenosine A2A receptor was recombinantly expressed in Chinese hamster ovary (CHO) cells using the semliki forest virus expression system. Cells were harvested, washed twice by centrifugation, homogenized and again washed by centrifugation. The [^3H]-SCH-58261 (Dionisotti et al., 1997, Br J Pharmacol 121, 353; 1 nM) binding assay was carried out in 96-well plates in the presence of (per well) approximately 2.5 μg of membrane protein, 0.5 mg of Ysi-poly-1-lysine SPA beads and 0.1 U adenosine deaminase in a final volume of 200 μl of buffer (containing 50 mM Tris, 120 mM NaCl, 5 mM KCl, 2 mM CaCl2 and 10 mM MgCl2 (pH 7.4)). Non-specific binding was defined using xanthine amine congener (XAC; 2 μM). Compounds were tested at 10 concentrations from 10 μM-0.3 nM. All assays were conducted in duplicate and repeated at least two times. Assay plates were incubated for 1 hour at room temperature before centrifugation and then bound ligand determined using a Packard Topcount scintillation counter. IC50 values were calculated using a non-linear curve fitting program and Ki values calculated using the Cheng-Prussoff equation.

[2] = biological target: T2, human adenosine A1 receptor (Homo sapiens, UniProt P30542); assay: Human adenosine A1 receptor [3H]-DPCPX binding assay; conditions: recombinant receptor expressed in CHO cells, [3H]-DPCPX 0.6 nM, SPA; read-out: hA1 (converted)
T2 construct: expressed in transfected cells; host or cells: CHO cells, semliki forest virus expression system; membranes used
T2 sequence (P30542 1-326): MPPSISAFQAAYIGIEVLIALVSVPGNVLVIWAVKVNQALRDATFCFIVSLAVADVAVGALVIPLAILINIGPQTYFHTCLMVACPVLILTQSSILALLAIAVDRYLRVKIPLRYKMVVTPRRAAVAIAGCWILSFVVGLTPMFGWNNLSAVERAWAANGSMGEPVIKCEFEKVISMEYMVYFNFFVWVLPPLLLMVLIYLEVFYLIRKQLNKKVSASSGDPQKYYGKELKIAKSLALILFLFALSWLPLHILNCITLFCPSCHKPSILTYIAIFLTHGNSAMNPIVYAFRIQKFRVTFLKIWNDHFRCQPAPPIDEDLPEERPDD
Protocol: as §1, with “A1” for “A2A”, “[^3H]-DPCPX (([propyl-3H]8-cyclopentyl-1,3-dipropyxanthine); 0.6” for “[^3H]-SCH-58261 (Dionisotti et al., 1997, Br J Pharmacol 121, 353; 1”

T1 sequence (P29274 whole entry): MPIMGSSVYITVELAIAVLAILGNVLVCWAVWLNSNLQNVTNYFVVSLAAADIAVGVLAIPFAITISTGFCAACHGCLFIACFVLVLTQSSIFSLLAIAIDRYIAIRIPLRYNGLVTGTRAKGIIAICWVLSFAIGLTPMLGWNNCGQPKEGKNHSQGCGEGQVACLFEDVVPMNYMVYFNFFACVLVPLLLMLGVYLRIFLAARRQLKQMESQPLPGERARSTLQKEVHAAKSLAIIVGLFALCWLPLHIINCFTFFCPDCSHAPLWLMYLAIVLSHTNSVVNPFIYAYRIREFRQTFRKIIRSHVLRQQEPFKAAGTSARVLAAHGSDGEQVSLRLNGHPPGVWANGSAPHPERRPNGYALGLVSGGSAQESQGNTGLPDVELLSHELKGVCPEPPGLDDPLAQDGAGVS

| SMILES | Selectivity [1] | Ki [1] [µM] | Ki [2] [µM] |
| --- | --- | --- | --- |
| COc1cnc(N2CCOCC2)c2sc(NC(=O)c3ccc(F)cc3)nc12 [Example 1, 4-Fluoro-N-(7-methoxy-4-morpholin-4-yl-thiazolo[5,4-c]pyridin-2-yl)-benzamide] | 420 | 0.00417 | 1.78 |
| COc1ccc(C(=O)Nc2nc3c(OC)cnc(N4CCOCC4)c3s2)cc1 [Example 3, 4-Methoxy-N-(7-methoxy-4-morpholin-4-yl-thiazolo[5,4-c]pyridin-2-yl)-benzamide] | 384 | 0.00501 | 1.91 |
| COc1cnc(N2CCOCC2)c2sc(NC(=O)c3ccnc(C)c3)nc12 [Example 4, N-(7-Methoxy-4-morpholin-4-yl-thiazolo[5,4-c]pyridin-2-yl)-2-methyl-isonicotinamide] | 512 | 0.0112 | 5.75 |
| COc1cc(C(=O)Nc2nc3c(OC)cnc(N4CCOCC4)c3s2)ccn1 [Example 5, 2-Methoxy-N-(7-methoxy-4-morpholin-4-yl-thiazolo[5,4-c]pyridin-2-yl)-isonicotinamide] | 489 | 0.0129 | 6.31 |
| COc1cnc(N2CCOCC2)c2sc(NC(=O)c3cccc(F)c3)nc12 [Example 6, 3-Fluoro-N-(7-methoxy-4-morpholin-4-yl-thiazolo[5,4-c]pyridin-2-yl)-benzamide] | 312 | 0.00537 | 1.66 |
| COc1cccc(C(=O)Nc2nc3c(OC)cnc(N4CCOCC4)c3s2)c1 [Example 7, 3-Methoxy-N-(7-methoxy-4-morpholin-4-yl-thiazolo[5,4-c]pyridin-2-yl)-benzamide] | 436 | 0.00309 | 1.35 |
| COc1ccc(C(=O)Nc2nc3c(OC)cnc(N4CCOCC4)c3s2)cc1OC [Example 8, 3,4-Dimethoxy-N-(7-methoxy-4-morpholin-4-yl-thiazolo[5,4-c]pyridin-2-yl)-benzamide] | 535 | 0.0138 |  |
| COc1cnc(N2CCOCC2)c2sc(NC(=O)c3ccc4c(c3)OCO4)nc12 [Example 9, Benzo [1,3]dioxole-5-carboxylic acid (7-methoxy-4-morpholin-4-yl-thiazolo[5,4-c]pyridin-2-yl)-amide] | 527 | 0.00724 | 3.8 |
| COc1cnc(N2CCOCC2)c2sc(NC(=O)CC3CCOCC3)nc12 [Example 11, N-(7-Methoxy-4-morpholin-4-yl-thiazolo[5,4-c]pyridin-2-yl)-2-(tetrahydro-pyran-4-yl)-acetamide] | 310 | 0.0162 | 5.01 |
| COc1cnc(N2CCOCC2)c2sc(NC(=O)c3ccncc3)nc12 [Example 17, N-(7-Methoxy-4-morpholin-4-yl-thiazolo[5,4-c]pyridin-2-yl)-isonicotinamide] | 258 | 0.0219 | 5.62 |
| COc1cnc(N2CCOCC2)c2sc(NC(=O)c3ccnc(N4CC(O)C4)c3)nc12 [Example 18, 2-(3-Hydroxy-azetidin-1-yl)-N-(7-methoxy-4-morpholin-4-yl-thiazolo[5,4-c]pyridin-2-yl)-isonicotinamide] | 868 | 0.00794 |  |
| COc1cnc(N2CCOCC2)c2sc(NC(=O)c3ccnc(N4CC(OC)C4)c3)nc12 [Example 19, 2-(3-Methoxy-azetidin-1-yl)-N-(7-methoxy-4-morpholin-4-yl-thiazolo[5,4-c]pyridin-2-yl)-isonicotinamide] | 347 | 0.0055 | 1.91 |
| COc1ccc(C(=O)Nc2nc3c(OC)cnc(N4CCOCC4)c3s2)cn1 [Example 21, 6-Methoxy-N-(7-methoxy-4-morpholin-4-yl-thiazolo[5,4-c]pyridin-2-yl)-nicotinamide] | 519 | 0.0141 |  |
| COc1cnc(N2CCOCC2)c2sc(NC(=O)c3ccnc(N4CCOCC4)c3)nc12 [Example 22, N-(7-Methoxy-4-morpholin-4-yl-thiazolo[5,4-c]pyridin-2-yl)-2-morpholin-4-yl-isonicotinamide] | 1647 | 0.00389 | 6.46 |

Next, values leading:

| Selectivity [1] | Ki [1] [µM] | Ki [2] [µM] | SMILES |
| --- | --- | --- | --- |
| 572 | 0.0126 |  | COc1cnc(N2CCOCC2)c2sc(NC(=O)c3ccc(N4CCOCC4)cc3)nc12 [Example 29, N-(7-Methoxy-4-morpholin-4-yl-thiazolo[5,4-c]pyridin-2-yl)-4-morpholin-4-yl-benzamide] |
| 1716 | 0.00407 | 7.08 | COc1cnc(N2CCOCC2)c2sc(NC(=O)c3cccc(N4CCOCC4)c3)nc12 [Example 30, N-(7-Methoxy-4-morpholin-4-yl-thiazolo[5,4-c]pyridin-2-yl)-3-morpholin-4-yl-benzamide] |
| 441 | 0.0138 | 6.03 | COCCN(C)Cc1ccc(C(=O)Nc2nc3c(OC)cnc(N4CCOCC4)c3s2)cc1 [Example 31, 4-{[(2-Methoxy-ethyl)-methyl-amino]-methyl}-N-(7-methoxy-4-morpholin-4-yl-thiazolo[5,4-c]pyridin-2-yl)-benzamide] |
| 291 | 0.0251 |  | COc1cnc(N2CCOCC2)c2sc(NC(=O)c3ccnc(CN4CCOCC4)c3)nc12 [Example 33, N-(7-Methoxy-4-morpholin-4-yl-thiazolo[5,4-c]pyridin-2-yl)-2-morpholin-4-ylmethyl-isonicotinamide] |
| 468 | 0.00676 | 3.16 | COc1cnc(N2CCOCC2)c2sc(NC(=O)N3CCC(CO)CC3)nc12 [Example 36, 4-Hydroxymethyl-piperidine-1-carboxylic acid (7-methoxy-4-morpholin-4-yl-thiazolo[5,4-c]pyridin-2-yl)-amide] |
| 346 | 0.0209 |  | COc1cnc(N2CCOCC2)c2sc(NC(=O)N3CCC4(CCN(C)C4=O)CC3)nc12 [Example 37, 2-Methyl-1-oxo-2,8-diaza-spiro [4.5] decane-8-carboxylic acid (7-methoxy-4-morpholin-4-yl-thiazolo[5,4-c]pyridin-2-yl)-amide] |
| 446 | 0.0162 |  | COc1cnc(N2CCOCC2)c2sc(NC(=O)c3ccc(CN4CCOCC4)cc3)nc12 [Example 39, N-(7-Methoxy-4-morpholin-4-yl-thiazolo[5,4-c]pyridin-2-yl)-4-morpholin-4-ylmethyl-benzamide] |
| 387 | 0.0155 | 5.89 | COc1cnc(N2CCOCC2)c2sc(NC(=O)N3CCC4(CCCO4)CC3)nc12 [Example 40, 1-Oxa-8-aza-spiro[4.5]decane-8-carboxylic acid (7-methoxy-4-morpholin-4-yl-thiazolo[5,4-c]pyridin-2-yl)-amide] |
| 593 | 0.0117 | 7.08 | COc1cnc(N2CCOCC2)c2sc(NC(=O)N3CCC(C)(CO)CC3)nc12 [Example 43, 4-Hydroxymethyl-4-methyl-piperidine-1-carboxylic acid (7-methoxy-4-morpholin-4-yl-thiazolo[5,4-c]pyridin-2-yl)-amide] |

— patent US7273865B2, “Thiazolopyridine” (Hoffmann-La Roche Inc., priority 2003, dated 2007)
